Data on seven compounds can be found in publication PMC6072100, “Exploring the links between peptoid antibacterial activity and toxicity” (MedChemComm, 2017).

Data set [1] has as its system E. coli, P. aeruginosa, S. aureus and S. epidermidis. The data set is classed as cell-based. In a few lines:
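Broth microdilution in Iso-sensitest broth: overnight cultures adjusted to A650nm 0.07 (0.5 McFarland), diluted ten-fold, and mixed 1:1 with 2-fold serial peptoid dilutions (final 2–100 µM, from DMSO stock). Plates were incubated 16 h at 37 °C with shaking and growth read by absorbance, in triplicate.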

Data set [2] concerns NIH 3T3 murine fibroblasts. Details: method as in PMID 26849681. To be noted: in vitro mammalian assays; cited from earlier work.
On the set-up of data set [3]: method as in PMID 18287037. To be noted: cited from earlier work.

SMILES strings stand for the structures. Square brackets hold non-standard residues; d marks the D form. Peptide text beside a SMILES is read from it. Gly(N-(CH2)6NH2) = NCCCCCCNCC(=O)O; Gly(N-2-aminoethyl) = NCCNCC(=O)O; Nspe = C[C@H](NCC(=O)O)c1ccccc1; Nphe = O=C(O)CNCc1ccccc1; Nlys = NCCCCNCC(=O)O

Turning to `NCCCCCCNCC(=O)N(CC(=O)N(CC(=O)N(CCCCCCN)CC(=O)N(CC(=O)N(CC(N)=O)Cc1ccccc1)Cc1ccccc1)Cc1ccccc1)Cc1ccccc1` [Peptoid 3, (NahNpheNphe)2] (H-[Gly(N-(CH2)6NH2)][Nphe][Nphe][Gly(N-(CH2)6NH2)][Nphe][Nphe]-NH2), in data set [1], the “MICs against the bacteria tested” value is 100 µM.
Turning to `NCCCCNCC(=O)N(CC(=O)N(CC(=O)N(CCCCN)CC(=O)N(CC(=O)N(CC(N)=O)Cc1ccccc1)Cc1ccccc1)Cc1ccccc1)Cc1ccccc1` [Peptoid 6, (NLysNpheNphe)2] (H-[Nlys][Nphe][Nphe][Nlys][Nphe][Nphe]-NH2), in data set [1], the “MICs against the bacteria tested” value is 100 µM.
As to `NCCNCC(=O)N(CC(=O)N(CC(=O)N(CCN)CC(=O)N(CC(=O)N(CC(N)=O)Cc1ccccc1)Cc1ccccc1)Cc1ccccc1)Cc1ccccc1` [Peptoid 9, (NaeNpheNphe)2] (H-[Gly(N-2-aminoethyl)][Nphe][Nphe][Gly(N-2-aminoethyl)][Nphe][Nphe]-NH2), in data set [1], the “MICs against the bacteria tested” value is 100 µM.
Same read-out and setting: the same measure for `C[C@@H](c1ccccc1)N(CC(N)=O)C(=O)CN(C(=O)CN(CCCCCCN)C(=O)CN(C(=O)CN(C(=O)CNCCCCCCN)[C@@H](C)c1ccccc1)[C@@H](C)c1ccccc1)[C@@H](C)c1ccccc1` [Peptoid 12, (NahNspeNspe)2]: 100 µM.
As for `C[C@@H](c1ccccc1)N(CC(N)=O)C(=O)CN(C(=O)CN(CCCCN)C(=O)CN(C(=O)CN(C(=O)CN(CCCCN)C(=O)CN(C(=O)CN(C(=O)CN(CCCCN)C(=O)CN(C(=O)CN(C(=O)CNCCCCN)[C@@H](C)c1ccccc1)[C@@H](C)c1ccccc1)[C@@H](C)c1ccccc1)[C@@H](C)c1ccccc1)[C@@H](C)c1ccccc1)[C@@H](C)c1ccccc1)[C@@H](C)c1ccccc1` [Peptoid 13, (NLysNspeNspe)4] (H-[Nlys][Nspe][Nspe][Nlys][Nspe][Nspe][Nlys][Nspe][Nspe][Nlys][Nspe][Nspe]-NH2), in data set [2], the “observed toxicity against NIH 3T3 murine fibroblasts” value was 5.1 µM. Moreover, the “50% haemolytic dose (HD50)” value in data set [3] was 100 µM.
With `C[C@@H](c1ccccc1)N(CC(N)=O)C(=O)CN(C(=O)CN(CCCCN)C(=O)CN(C(=O)CN(C(=O)CNCCCCN)[C@@H](C)c1ccccc1)[C@@H](C)c1ccccc1)[C@@H](C)c1ccccc1` [Peptoid 15, (NLysNspeNspe)2] (H-[Nlys][Nspe][Nspe][Nlys][Nspe][Nspe]-NH2), the “MICs against the bacteria tested” value in data set [1] was 100 µM.
As for `C[C@@H](c1ccccc1)N(CC(N)=O)C(=O)CN(C(=O)CN(CCN)C(=O)CN(C(=O)CN(C(=O)CNCCN)[C@@H](C)c1ccccc1)[C@@H](C)c1ccccc1)[C@@H](C)c1ccccc1` [Peptoid 18, (NaeNspeNspe)2], the “MICs against the bacteria tested” value in data set [1] worked out at 100 µM.
